The text below walks through data of US6187770A, “N-substituted azaheterocyclic compounds” (Novo Nordisk A/S, priority 1998, dated 2001).

Molecules are shown by their SMILES.

The test system of this assay is histamine induced blood glucose rise. Kind of assay: Histamine induced hyperglycemia in mice. Format: in vivo. As to conditions: 1.0 mg/kg ip, 30 min before histamine chloride (90 nmol icv); blood glucose at 0 and 40 min; male NMRI mice. As to the method:
Conscious unfasted 25 g male NMRI mice are administered histamine chloride (90 nmol) icv according to the method of Nishibori et al. (J. Pharmacol. Exp. Therap. 241, […], 1987). Blood glucose is determined at time 0 and 40 min after the histamine injection. Test compounds are administered at 1.0 mg/kg ip 30 min before the histamine injection, and % inhibition refers to the capacity of the compounds to inhibit the histamine induced blood glucose rise.

In the case of `O=C(O)CCN1CCN2c3ccccc3Sc3ccccc3C2C1` (stereo not shown) [Example 4, 3-(1,3,4,14b-Tetrahydro-2H-dibenzo[b,f]pyrazino[1,2-d][1,4]thiazepin-2-yl)-propionic acid], the “% inhibition of histamine induced hyperglycemia” value was found to be 48%.
